Data from publication PMC10967270, “Intrapulmonary and Systemic Pharmacokinetics of Colistin Following Nebulization of Low-Dose Colistimethate Sodium in Patients with Ventilator-Associated Pneumonia Caused by Carbapenem-Resistant Acinetobacter baumannii” (Antibiotics, 2024).
Positions of bridges follow the written chain, without caps; N, C: chain ends. Non-standard residues stand in square brackets, D forms with d. Residues, ends and D or L forms follow the SMILES beside them. *: point of attachment. X1 = CC[C@H](C)CCCCC(=O)*; Dab = NCC[C@H](N)C(=O)O

Experiments:
[1] = Colistin concentration in plasma after CMS nebulization; assay type: in vivo; conditions: human, inhaled or intranasal, 20 patients
Method: Patients were treated with CMS (Xellia Pharmaceuticals ApS, Copenhagen, Denmark) at a total of 3.75 MIU (equivalent to 300 mg of CMS or 112.5 mg of CBA) administered four times a day at 6 h intervals. CMS was dissolved in 5 mL of normal saline and administered over 30 min through a jet nebulizer (Sileo 54, Macjin Medical, Seoul, Republic of Korea) connected to the ventilator circuit. Bronchoalveolar lavage fluid (BALF) was obtained by instilling 20 mL of normal saline into the right middle lobe or left lingular segmental bronchus using a bronchoscope, followed by immediate aspiration and collection into a syringe. Samples were collected immediately before the nebulization treatment and at 1, 3, and 5 h after the start of the treatment. Blood samples were collected before the nebulization treatment and at 1, 2, 3, and 5 h thereafter. Both BALF and blood samples were centrifuged at 3000× g for 10 min within 1 h of collection and the supernatant was isolated. Samples were then stored in a refrigerator at a temperature below −70 °C.
A validated liquid chromatography–tandem mass spectrometry assay was used to determine colistin concentrations in BALF and plasma samples. The HPLC equipment consisted of an Agilent 1200 series modular system and an Atlantis C18 column (Company, Waters, Milford, MA, USA) (2.1 mm × 150 mm, 3.0 μm). Mobile phases A and B were water and acetonitrile, respectively. Both phases contained 0.1% formic acid. A gradient elution program was started at 10% B, increased to 35% for 1 min, maintained at this composition for 3.8 min, and returned to the initial composition for 5 min to re-equilibrate the column. Mass spectrometry (MS) was performed using a triple-quadruple mass spectrometer (SCIEX QTRAP5500, Applied Biosystems, Foster City, CA, USA) with an electrospray ionization (ESI) interface. The ESI source was set to positive ionization mode. The parent to product transition (m/z) was 578.483→101.071 for colistin A, 585.453→101.071 for colistin B, and 602.527→101.000 for polymyxin B. Data acquisition and processing were performed using the Analyst software (version 1.7.1; Applied Biosystems, Foster City, CA, USA). Stock solutions of colistin and IS were prepared in deionized water at concentrations of 10 mg/mL, and both were stored at −20 °C. Working solutions of colistin were prepared in deionized water (dilutions of 2, 5, 10, 50, 100, 500, and 1000 μg/mL). Calibration standards were prepared by spiking 247.5 μL of drug-free plasma with 2.5 μL of colistin working solution. Low (colistin A; 11.16 ng/mL, colistin B; 48.84 ng/mL), moderate (colistin A; 186 ng/mL, colistin B; 814 ng/mL), and high (colistin A; 1488 ng/mL, colistin B; 6512 ng/mL) concentrations of QC samples were prepared. Sample pretreatment involved a solid phase extraction. A 250 μL aliquot of plasma was pipetted into a 1.5 mL Eppendorf tube, to which 10 μL of IS (10 μg/mL, polymyxin B) and 740 μL of deionized water were added. This mixture was loaded into a cartridge that had been preconditioned twice with 1 mL of methanol and 1 mL of deionized water. After the plasma mixture was loaded, the cartridge was washed with 1 mL of deionized water. One milliliter of methanol including 0.1% formic acid was used for extraction. Extraction liquid was evaporated by vacuum concentrator (Speedvac, Thermo Fisher Scientific Inc., Waltham, MA, USA) at 45 °C for 2.5 h. Samples were reconstituted in 100 μL deionized water containing 0.1% formic acid. […]

[2] = Individual steady-state fAUC of colistin in ELF and plasma by clinical and microbiological outcome; assay type: in vivo, human; conditions: for fAUC, median (IQR): steady state over 24 h
Method: We investigated whether the fAUC values of individual patients were associated with clinical or microbiological outcomes (Table 3). Using individual estimates of CL derived from the final PK model, we calculated the steady-state fAUC for each patient when a total of 3.75 MIU (=300 mg CMS = 112.5 mg CBA) was administered at 6 h intervals four times a day, using the formula AUC = DOSE/CL. The unbound fraction of colistin was assumed to be 10% [25] in the ELF based on the study by Gkoufa et al. and 34% in the plasma based on the study by Mohamed et al.. Gkoufa et al. presented concentration–time profiles of colistin predicted through simulations, assuming unbound fractions in the ELF of 0.01, 0.015, 0.05, and 0.099 [25]. From these, we approximated the unbound fraction at 0.1 by rounding 0.099. Meanwhile, Mohamed et al. determined the unbound fraction in plasma using equilibrium dialysis and reported a measured median (range) colistin unbound fraction of 34% (26–41%).
The PK/PD index for colistin is the area under the free colistin concentration-–time curve at steady state over 24 h divided by the pathogen minimum inhibitory concentration (fAUC/MIC). Since we were unable to obtain MIC values for A. baumannii, we evaluated the relationship between the PK and PD of colistin by comparing the fAUC of each patient in accordance with their clinical outcomes and microbiological outcomes. AUC was calculated by dividing the daily dose by patient, which was the individual post hoc Bayesian estimate of the developed PK model. […] The Wilcoxon rank-sum test was used to assess the relationships between fAUC and clinical outcomes, and the Kruskal–Wallis test was used to investigate the association between fAUC and microbiological outcomes. Additionally, leveraging typical PK parameter values from final models of ELF and plasma samples, we simulated concentration-time profiles of colistin for nebulization doses of 25 mg, 50 mg, 75 mg, 100 mg, and 125 mg in patients. Subsequently, we generated concentration–time plots and computed fAUC values.

A. baumannii = conditions: murine lung infection model; cited from earlier work

CC[C@H](C)CCCCC(=O)N[C@@H](CCN)C(=O)N[C@H](C(=O)N[C@@H](CCN)C(=O)N[C@H]1CCNC(=O)[C@H]([C@@H](C)O)NC(=O)[C@H](CCN)NC(=O)[C@H](CCN)NC(=O)[C@H](CC(C)C)NC(=O)[C@@H](CC(C)C)NC(=O)[C@H](CCN)NC1=O)[C@@H](C)O [colistin] (X1-[Dab]T[Dab][Dab][Dab][dL]L[Dab][Dab]T; lactam 4-C)
level at 1 h ([1]; 1 h after start (time by position in Figure 1c), CMS 0.9375 MIU nebulized over 30 min, LC-MS/MS, read-out: Median colistin concentration in plasma): 19.2 ng/mL | level at 2 h ([1]; 2 h after start (time by position in Figure 1c), CMS 0.9375 MIU nebulized over 30 min, LC-MS/MS, read-out: Median colistin concentration in plasma): 29.8 ng/mL | level at 3 h ([1]; 3 h after start (time by position in Figure 1c), CMS 0.9375 MIU nebulized over 30 min, LC-MS/MS, read-out: Median colistin concentration in plasma): 37.7 ng/mL | level at 5 h ([1]; 5 h after start (time by position in Figure 1c), CMS 0.9375 MIU nebulized over 30 min, LC-MS/MS, read-out: Median colistin concentration in plasma): 32.6 ng/mL | Cmax ([1]; nebulized CMS 0.9375 MIU over 30 min, monitored over 5 h, read-out: Observed peak colistin concentration in plasma, median (IQR)): 43.5 ng/mL | fAUC, median (IQR) ([2]; ELF, clinical outcome cured/improved, 16 patients, 3.75 MIU CMS/day at 6 h intervals, AUC = dose/CL, bioavailability 9%, unbound fraction 10%): 36.7 (18.2–62.9) mg/L·h | fAUC, median (IQR) ([2]; ELF, clinical outcome failed, 4 patients, 3.75 MIU CMS/day, unbound fraction 10%): 31.7 (15.4–47.8) mg/L·h | fAUC, median (IQR) ([2]; ELF, microbiological outcome eradicated, 8 patients, 3.75 MIU CMS/day): 61.2 (12.5–111) mg/L·h | fAUC, median (IQR) ([2]; ELF, microbiological outcome indeterminate, 2 patients, 3.75 MIU CMS/day): 33.9 (30.0–37.9) mg/L·h | fAUC, median (IQR) ([2]; ELF, microbiological outcome persistent, 10 patients, 3.75 MIU CMS/day): 28.5 (17.7–50.5) mg/L·h | fAUC in ELF relative to plasma ([2]; cured/improved group, mean values): approximately 27.2 times | fAUC in ELF relative to plasma ([2]; cured/improved group, median values): approximately 26.2 times | fAUC in ELF relative to plasma ([2]; eradicated group, mean values): 39.8 times | fAUC in ELF relative to plasma ([2]; eradicated group, median values): 26.0 times | fAUC in ELF relative to plasma ([2]; failed group, mean values): about 14.0 times | fAUC in ELF relative to plasma ([2]; failed group, median values): 15.9 times | fAUC in ELF relative to plasma ([2]; indeterminate group, mean values): 6 times | fAUC in ELF relative to plasma ([2]; indeterminate group, median values): 6 times | ELF fAUC, cured/improved relative to treatment failure ([2]; mean values): more than 2.25 times | ELF fAUC, eradicated relative to indeterminate group ([2]; mean values): 3.24 times | ELF fAUC, eradicated relative to persistent group ([2]; mean values): 3.48 times | ELF fAUC, cured/improved relative to treatment failure ([2]; median values): 1.16 times | ELF fAUC, eradicated relative to indeterminate group ([2]; median values): 1.80 times | ELF fAUC, eradicated relative to persistent group ([2]; median values): 2.15 times | fAUC in ELF relative to plasma ([2]; persistent group, mean values): 18.8 times | fAUC in ELF relative to plasma ([2]; persistent group, median values): 18.2 times | fAUC, median (IQR) ([2]; plasma, clinical outcome cured/improved, 16 patients, 3.75 MIU CMS/day, unbound fraction 34%): 1.40 (0.752–3.74) mg/L·h | fAUC, median (IQR) ([2]; plasma, clinical outcome failed, 4 patients, 3.75 MIU CMS/day, unbound fraction 34%): 2.00 (1.87–2.38) mg/L·h | fAUC, median (IQR) ([2]; plasma, microbiological outcome eradicated, 8 patients, 3.75 MIU CMS/day): 2.36 (0.645–4.11) mg/L·h | fAUC, median (IQR) ([2]; plasma, microbiological outcome indeterminate, 2 patients, 3.75 MIU CMS/day): 5.96 (5.00–6.91) mg/L·h | fAUC, median (IQR) ([2]; plasma, microbiological outcome persistent, 10 patients, 3.75 MIU CMS/day): 1.56 (1.00–2.05) mg/L·h | fAUC/MIC target values for a 2 log10 kill (A. baumannii): 22.5–95.0 mg/L·h
